# Data from BindingDB's records for doi:10.1021/jm00039a015 (Abbott Laboratories, 1994).
# pKi: −log10 of the molar value.
# Target: Platelet-activating factor receptor (Oryctolagus cuniculus)
# Assay: Antagonist activity against platelet activating factor (PAF) receptor in rabbit platelet membranes using [3H]C18-PAF as radioligand
row,Compound,pKi
1,O=C(c1c[nH]c2ccccc12)[C@@H]1CS[C@@H](c2cccnc2)N1C(=O)C(F)(F)F,5.15
2,O=C(c1c[nH]c2ccccc12)[C@@H]1CS[C@H](c2cccnc2)N1C(=O)C(F)(F)F,5.79
3,CC(=O)N1C(c2cccnc2)SC[C@H]1C(=O)c1c[nH]c2ccccc12 (stereo partly drawn) [1-[(R)-4-(1H-Indole-3-carbonyl)-2-pyridin-3-yl-thiazolidin-3-yl]-ethanone],4.75
4,"CC(C)(C)C(=O)n1cc(C(=O)[C@@H]2CSC(c3cccnc3)N2)c2ccccc21 (stereo partly drawn) [2,2-Dimethyl-1-[3-((R)-2-pyridin-3-yl-thiazolidine-4-carbonyl)-indol-1-yl]-propan-1-one]",8.06
5,"Cc1ccc2c(c1)c(C(=O)[C@@H]1CSC(c3cccnc3)N1)c(C)n2C(=O)N(C)C (some centres undefined) [2,5-Dimethyl-3-(2-pyridin-3-yl-thiazolidine-4-carbonyl)-indole-1-carboxylic acid dimethylamide]",7.89
6,"Cc1ccc2c(c1)c(C(=O)[C@@H]1CSC(c3cccnc3)N1)c(C)n2C(=O)OC(C)(C)C (stereo partly drawn) [2,5-Dimethyl-3-((R)-2-pyridin-3-yl-thiazolidine-4-carbonyl)-indole-1-carboxylic acid tert-butyl ester; compound with oxalic acid]",7.11
7,Cc1c(C(=O)[C@@H]2CSC(c3cccnc3)N2)c2ccccc2n1C(=O)OC(C)(C)C (stereo partly drawn) [2-Methyl-3-((R)-2-pyridin-3-yl-thiazolidine-4-carbonyl)-indole-1-carboxylic acid tert-butyl ester; compound with oxalic acid],8.02
8,NC(=O)Cn1cc(C(=O)[C@@H]2CSC(c3cccnc3)N2)c2ccccc21 (stereo partly drawn) [2-[3-((R)-2-Pyridin-3-yl-thiazolidine-4-carbonyl)-indol-1-yl]-acetamide],8.30
9,O=C(c1cn(C(=O)OCc2ccccc2)c2ccccc12)[C@@H]1CSC(c2cccnc2)N1 (stereo partly drawn) [3-((R)-2-Pyridin-3-yl-thiazolidine-4-carbonyl)-indole-1-carboxylic acid benzyl ester; compound with oxalic acid],8.52
10,CCOC(=O)n1cc(C(=O)[C@@H]2CSC(c3cccnc3)N2)c2ccccc21 (stereo partly drawn) [3-((R)-2-Pyridin-3-yl-thiazolidine-4-carbonyl)-indole-1-carboxylic acid ethyl ester],8.36
11,CN(C(=O)n1cc(C(=O)[C@@H]2CSC(c3cccnc3)N2)c2ccccc21)c1ccccc1 (stereo partly drawn) [3-((R)-2-Pyridin-3-yl-thiazolidine-4-carbonyl)-indole-1-carboxylic acid methyl-phenyl-amide],7.51
12,CC(C)(C)OC(=O)n1cc(C(=O)[C@@H]2CSC(c3cccnc3)N2)c2ccccc21 (stereo partly drawn) [3-((R)-2-Pyridin-3-yl-thiazolidine-4-carbonyl)-indole-1-carboxylic acid tert-butyl ester],9.00
13,CC(C)(C)NC(=O)n1cc(C(=O)[C@@H]2CSC(c3cccnc3)N2)c2ccccc21 (stereo partly drawn) [3-((R)-2-Pyridin-3-yl-thiazolidine-4-carbonyl)-indole-1-carboxylic acid tert-butylamide],8.06
14,COC(=O)CCn1cc(C(=O)[C@@H]2CSC(c3cccnc3)N2)c2ccccc21 (stereo partly drawn) [3-[3-((R)-2-Pyridin-3-yl-thiazolidine-4-carbonyl)-indol-1-yl]-propionic acid methyl ester],8.34
15,O=C(O)CCn1cc(C(=O)[C@@H]2CSC(c3cccnc3)N2)c2ccccc21 (stereo partly drawn) [3-[3-((R)-2-Pyridin-3-yl-thiazolidine-4-carbonyl)-indol-1-yl]-propionic acid],7.60
16,"Cc1nnc2n1-c1sc3c(c1C(c1ccccc1Cl)=NC2)CC(C(=O)N1CCOCC1)C3 (centres undefined) [6-(2-chlorophenyl)-1-methyl-8,9-dihydro-4H,7H-cyclopenta[4,5]thieno[3,2-f][1,2,4]triazolo[4,3-a][1,4]diazepin-9-yl-1,4-oxazinan-4-ylmethanone (WEB 2170)]",7.54

# Results, then the molecule that gave them:
row,pKi,Compound
1,8.85,CCN(CC)C(=O)n1cc(C(=O)[C@@H]2CSC(c3cccnc3)N2)c2ccccc21 (stereo partly drawn) [3-((R)-2-Pyridin-3-yl-thiazolidine-4-carbonyl)-indole-1-carboxylic acid diethylamide]
2,9.10,CN(C)C(=O)n1cc(C(=O)[C@@H]2CSC(c3cccnc3)N2)c2ccccc21 (stereo partly drawn) [3-((R)-2-Pyridin-3-yl-thiazolidine-4-carbonyl)-indole-1-carboxylic acid dimethylamide]
3,8.00,"COc1cc2c(C(=O)[C@@H]3CSC(c4cccnc4)N3)cn(C(=O)N(C)C)c2cc1OC (stereo partly drawn) [5,6-Dimethoxy-3-((R)-2-pyridin-3-yl-thiazolidine-4-carbonyl)-indole-1-carboxylic acid dimethylamide]"
4,8.52,COCCOc1ccc2c(C(=O)[C@@H]3CSC(c4cccnc4)N3)cn(C(=O)N(C)C)c2c1 (stereo partly drawn) [6-(2-Methoxy-ethoxy)-3-((R)-2-pyridin-3-yl-thiazolidine-4-carbonyl)-indole-1-carboxylic acid dimethylamide]
5,8.74,CN(C)C(=O)n1cc(C(=O)[C@@H]2CSC(c3cccnc3)N2)c2ccc(OCc3ccc(F)cc3)cc21 (stereo partly drawn) [6-(4-Fluoro-benzyloxy)-3-((R)-2-pyridin-3-yl-thiazolidine-4-carbonyl)-indole-1-carboxylic acid dimethylamide]
6,8.66,CN(C)C(=O)n1cc(C(=O)[C@@H]2CSC(c3cccnc3)N2)c2ccc(Oc3ccc(F)cc3)cc21 (stereo partly drawn) [6-(4-Fluoro-phenoxy)-3-((R)-2-pyridin-3-yl-thiazolidine-4-carbonyl)-indole-1-carboxylic acid dimethylamide]
7,8.04,CN(C)C(=O)n1cc(C(=O)[C@@H]2CSC(c3cccnc3)N2)c2ccc(-c3ccc(F)cc3)cc21 (stereo partly drawn) [6-(4-Fluoro-phenyl)-3-((R)-2-pyridin-3-yl-thiazolidine-4-carbonyl)-indole-1-carboxylic acid dimethylamide]
8,9.00,CN(C)C(=O)n1cc(C(=O)[C@@H]2CSC(c3cccnc3)N2)c2ccc(C(=O)c3ccccc3)cc21 (stereo partly drawn) [6-Benzoyl-3-((R)-2-pyridin-3-yl-thiazolidine-4-carbonyl)-indole-1-carboxylic acid dimethylamide]
9,8.85,CN(C)C(=O)n1cc(C(=O)[C@@H]2CSC(c3cccnc3)N2)c2ccc(OCc3ccccc3)cc21 (stereo partly drawn) [6-Benzyloxy-3-((R)-2-pyridin-3-yl-thiazolidine-4-carbonyl)-indole-1-carboxylic acid dimethylamide; compound with oxalic acid]
10,9.00,CC(C)(C)OC(=O)n1cc(C(=O)[C@@H]2CSC(c3cccnc3)N2)c2ccc(OCc3ccccc3)cc21 (stereo partly drawn) [6-Benzyloxy-3-((R)-2-pyridin-3-yl-thiazolidine-4-carbonyl)-indole-1-carboxylic acid tert-butyl ester]
11,9.22,CN(C)C(=O)n1cc(C(=O)[C@@H]2CSC(c3cccnc3)N2)c2ccc(Br)cc21 (stereo partly drawn) [6-Bromo-3-((R)-2-pyridin-3-yl-thiazolidine-4-carbonyl)-indole-1-carboxylic acid dimethylamide]
12,9.00,CN(C)C(=O)n1cc(C(=O)[C@@H]2CSC(c3cccnc3)N2)c2ccc(Cl)cc21 (stereo partly drawn) [6-Chloro-3-((R)-2-pyridin-3-yl-thiazolidine-4-carbonyl)-indole-1-carboxylic acid dimethylamide]
13,8.09,COc1ccc2c(C(=O)[C@@H]3CSC(c4cccnc4)N3)cn(C(=O)OC(C)(C)C)c2c1 (stereo partly drawn) [6-Methoxy-3-((R)-2-pyridin-3-yl-thiazolidine-4-carbonyl)-indole-1-carboxylic acid tert-butyl ester; compound with oxalic acid]
